One test has as its system A375 malignant melanoma. Put plainly: Inhibition of Cell Proliferation (14C-thymidine incorporation), A375. The conditions noted are these: Homo sapiens, A-375, A375 cell line. The format is cell-based. The gist of the method: (§1)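 3000-8000 cells/well, 24 h preculture; cmpd in DMSO 24 h; + 0.2 uCi/well methyl 14C-thymidine (56 mCi/mmol) 24 h with drug; 37° C, 5% CO2; PBS wash x2; scintillation count of label incorporated; DMSO controls.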
On the technique in general: Incorporation of labelled thymidine or its analogues reports DNA synthesis.

Another test relates to HCT-116 colon carcinoma. Put plainly: Inhibition of Cell Proliferation (14C-thymidine incorporation), HCT-116. The class given is cell-based. Particulars: Homo sapiens, HCT-116 cell line. The gist of the method:
as §1

Test [1] has as its system HeLa cervical adenocarcinoma. Put plainly: Inhibition of Cell Proliferation (14C-thymidine incorporation), HeLa. The format is cell-based. The conditions noted are these: Homo sapiens, HeLa cell line. Summed up:
as §1

Another test has as its target Insulin Receptor Kinase (Homo sapiens, UniProt P06213). Put plainly: Kinase Selectivity Assay Insulin Receptor Kinase. The format is biochemical. The conditions noted are these: Kinase Selectivity, Tables 2a-2k; read-out: Insulin R Kinase IC50. Summed up: (§2)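 Reactions ran one hour at 30° C in 1% DMSO with enzyme diluted in 50 mM Tris-HCl pH 8.0, 0.1% BSA. Scintillation counting read ^33P incorporated into immobilized biotinylated peptide.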

The next test deals with T1, Protein Kinase A (Bos taurus, UniProt P00517).
T1 construct: purified from bovine heart; purchased Upstate Biotech 14-114; host or cells: bovine heart
In words: Kinase Selectivity Assay Protein Kinase A. The format is biochemical, bovine. The conditions noted are these: Kinase Selectivity, Tables 2a-2k; read-out: PKA IC50. Summed up:
as §2

Test [2] deals with T2, Casein Kinase 2 (alpha and beta subunits) (Homo sapiens, UniProt P68400).
T2 construct: purchased New England Biolabs 6010; host or cells: E. coli
T2 sequence (P68400 whole entry): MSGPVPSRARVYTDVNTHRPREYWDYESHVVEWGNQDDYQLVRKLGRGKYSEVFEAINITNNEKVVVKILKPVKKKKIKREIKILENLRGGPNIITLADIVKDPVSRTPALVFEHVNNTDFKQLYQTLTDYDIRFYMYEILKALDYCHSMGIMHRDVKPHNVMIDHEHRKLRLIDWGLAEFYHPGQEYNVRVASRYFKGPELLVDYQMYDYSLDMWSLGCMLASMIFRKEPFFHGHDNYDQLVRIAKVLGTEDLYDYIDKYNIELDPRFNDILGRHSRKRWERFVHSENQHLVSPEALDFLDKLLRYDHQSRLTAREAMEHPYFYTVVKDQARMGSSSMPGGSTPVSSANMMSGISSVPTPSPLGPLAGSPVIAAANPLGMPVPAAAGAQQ
T2 sequence (P67870 whole entry partner): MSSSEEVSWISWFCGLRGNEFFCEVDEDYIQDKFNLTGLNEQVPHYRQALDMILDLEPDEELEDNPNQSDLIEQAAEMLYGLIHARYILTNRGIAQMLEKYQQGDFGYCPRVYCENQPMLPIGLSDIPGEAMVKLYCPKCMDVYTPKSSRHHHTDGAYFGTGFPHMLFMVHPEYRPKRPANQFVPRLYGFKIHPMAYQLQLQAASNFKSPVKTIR
In words: Kinase Selectivity Assay Casein Kinase 2. Particulars: Kinase Selectivity, Tables 2a-2k; read-out: Caseine Kinase 2 IC50. The class given is biochemical. The gist of the method: as §2

Test [3] relates to PC-3 prostate adenocarcinoma. In words: Inhibition of Cell Proliferation (14C-thymidine incorporation), PC-3. The conditions noted are these: Homo sapiens, PC-3 cell line. The format is cell-based. The procedure:
The ability of a test compound to inhibit the proliferation of cell growth was determined by measuring incorporation of ^14C-labelled thymidine into newly synthesized DNA within the cells. This method was used on cell lines derived from carcinomas originating from several tissues such as HeLa cervical adenocarcinoma (American Type Culture Collection (ATCC), Virginia, Cat. #CCL-2), A375 malignant melanoma (ATCC CRL-1619), SK-OV-3 ovarian adenocarcinoma (ATCC HTB-77) HCT-116 colon carcinoma (CCL-247), PC-3 prostate adenocarcinoma (ATCC CRL-1435), and MDA-MB-231 (Xenogen Corp.) In this way the effect of a compound on cell growth of cells with many different phenotypes can be determined. Cells were trypsinized and counted and 3000-8000 cells were added to each well of a 96-well CytoStar tissue culture treated scintillating microplate (Amersham #RPNQ0160) in complete medium in a volume of 100 μl. Cells were incubated for 24 hours in complete medium at 37° C. in an atmosphere containing 5% CO2. Next, 1 μl of test compound in 100% DMSO was added to the wells of the plate. DMSO only was added to control wells. Cells were incubated for 24 more hours in complete medium at 37° C. in an atmosphere containing 5% CO2. Methyl ^14C-thymidine 56 mCi/mmol (NEN #NEC568 or Amersham #CFA532) was diluted in complete medium and 0.2 uCi/well was added to each well of the CytoStar plate in a volume of 20 μl. The plate was incubated for 24 hours at 37° C. plus 5% CO2 in drug plus ^14C-thymidine. The contents of the plate were discarded into a ^14C radioactive waste container by inverting the plate and the plate was washed twice with 200 μl PBS. 200 μl of PBS is added to each well. The top of the plate was sealed with a transparent plate sealer and a white plate backing sealer (Packard #6005199) was applied to the bottom of the plate. The degree of methyl ^14C-thymidine incorporation was quantified on a Packard Top Count.

Test [4] deals with T3, Casein Kinase 1 (CK1 delta isoform) (Rattus norvegicus, UniProt Q06486).
T3 construct: a truncation at amino acid 318 of the C-terminal portion of the rat CK1 delta isoform; purchased New England Biolabs 6030; host or cells: E. coli
T3 sequence (Q06486 1-317): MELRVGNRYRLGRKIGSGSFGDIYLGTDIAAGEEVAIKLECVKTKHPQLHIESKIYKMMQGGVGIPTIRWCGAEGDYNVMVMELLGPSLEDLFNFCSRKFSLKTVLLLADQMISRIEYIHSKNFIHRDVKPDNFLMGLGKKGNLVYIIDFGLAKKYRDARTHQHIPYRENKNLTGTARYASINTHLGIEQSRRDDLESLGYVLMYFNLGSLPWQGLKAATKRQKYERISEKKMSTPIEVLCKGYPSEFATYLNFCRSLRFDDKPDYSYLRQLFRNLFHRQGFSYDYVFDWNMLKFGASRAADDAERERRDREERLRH
Put plainly: Kinase Selectivity Assay Casein Kinase 1. The format is biochemical. Particulars: Tables 2a-2k, read-out: Caseine Kinase 1 IC50. Summed up: as §2

Insulin Receptor Kinase, sequence (P06213 980-1352): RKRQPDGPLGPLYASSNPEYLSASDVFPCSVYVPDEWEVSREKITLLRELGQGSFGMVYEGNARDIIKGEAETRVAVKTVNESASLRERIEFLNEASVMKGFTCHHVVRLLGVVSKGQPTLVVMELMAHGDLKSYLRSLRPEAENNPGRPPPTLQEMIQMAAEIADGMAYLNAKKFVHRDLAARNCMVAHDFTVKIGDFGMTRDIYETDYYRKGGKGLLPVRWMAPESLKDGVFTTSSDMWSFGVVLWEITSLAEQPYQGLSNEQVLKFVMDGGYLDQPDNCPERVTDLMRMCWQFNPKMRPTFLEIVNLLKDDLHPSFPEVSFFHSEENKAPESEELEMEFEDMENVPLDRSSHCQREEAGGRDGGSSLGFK

Regarding `Nc1nc(Nc2ccc(S(N)(=O)=O)cc2)nn1C(=O)c1c(F)cccc1F` [Cpd 1, 4-[[5-amino-1-(2,6-difluorobenzoyl)-1H-1,2,4-triazol-3-yl]amino]-benzenesulfonamide], the IC50 in the test with A375 malignant melanoma is 447 nM; with HCT-116 colon carcinoma, 254 nM; in test [1] it was 284 nM; on Insulin Receptor Kinase, > 100 µM; on Protein Kinase A, > 100 µM; in test [2] it was > 100 µM. The compound also returned an IC50 in test [3] of 119 nM.
Turning to `Nc1nc(Nc2ccc(S(N)(=O)=O)cc2)nn1C(=O)c1cccs1` [Cpd 14, 4-[[5-amino-1-(2-thienylcarbonyl)-1H-1,2,4-triazol-3-yl]amino]-benzenesulfonamide], the IC50 in test [4] was 348 nM; in the test with A375 malignant melanoma, 26500 nM; with HCT-116 colon carcinoma it was 1940 nM; in test [1] it was 550 nM; at Insulin Receptor Kinase it was 1.2 µM; on Protein Kinase A it was 5.43 µM. The IC50 in test [2] worked out at 8.05 µM; in test [3], 157 nM.
Regarding `Nc1nc(Nc2ccc(S(N)(=O)=O)cc2)nn1C(=O)c1sccc1F` [Cpd 16, 4-[[5-amino-1-[(3-fluoro-2-thienyl)carbonyl]-1H-1,2,4-triazol-3-yl]amino]-benzenesulfonamide], the IC50 in test [4] was 214 nM; in the test with A375 malignant melanoma it was 942 nM; with HCT-116 colon carcinoma it was 213 nM; in test [1] it was 263 nM; at Insulin Receptor Kinase it was > 100 µM; in test [2], > 100 µM. In test [3], this compound displayed an IC50 of 368 nM.
On to `Nc1nc(Nc2ccc(S(N)(=O)=O)cc2)nn1C(=O)c1sccc1Cl` [Cpd 17, 4-[[5-amino-1-[(3-chloro-2-thienyl)carbonyl]-1H-1,2,4-triazol-3-yl]amino]-benzenesulfonamide], for which the IC50 in test [4] was determined as 643 nM; in the test with A375 malignant melanoma it was 4970 nM; with HCT-116 colon carcinoma it was 309 nM; in test [1], 215 nM; on Insulin Receptor Kinase, 2.02 µM; in test [2] it was 2.65 µM. This compound returned a 50% inhibitory concentration (IC50) in test [3] of 294 nM.
In the case of `Nc1nc(Nc2ccc(S(=O)(=O)N3CCCCC3)cc2)nn1C(=O)c1cccs1` [Cpd 23, N^3-[4-(1-piperidinylsulfonyl)phenyl]-1-(2-thienylcarbonyl)-1H-1,2,4-triazole-3,5-diamine], the IC50 is 113 nM in test [4]; 424 nM in the test on A375 malignant melanoma; 376 nM in the test with HCT-116 colon carcinoma; 1180 nM in test [1]; > 100 µM on Insulin Receptor Kinase; > 100 µM on Protein Kinase A. Further, the IC50 in test [2] was > 100 µM; in test [3], 859 nM.
Consider `Nc1nc(Nc2ccc(S(N)(=O)=O)cc2)nn1C(=O)c1ccsc1` [Cpd 30, 4-[[5-amino-1-(3-thienylcarbonyl)-1H-1,2,4-triazol-3-yl]amino]-benzenesulfonamide], for which the IC50 in test [4] was determined as 1540 nM; with A375 malignant melanoma it was 8240 nM; in the test with HCT-116 colon carcinoma it was 1930 nM; in test [1] it was 215 nM; on Insulin Receptor Kinase it was 4.96 µM; in test [2] it was 7.6 µM. Further, in test [3], half-maximal inhibition (IC50) was put at 951 nM.
Consider `Cc1nc(C)c(C(=O)n2nc(Nc3ccc(S(N)(=O)=O)cc3)nc2N)s1` [Cpd 34, 4-[[5-amino-1-[(2,4-dimethyl-5-thiazolyl)carbonyl]-1H-1,2,4-triazol-3-yl]amino]-benzenesulfonamide], for which the IC50 was 182 nM in test [4]; 996 nM in the test on HCT-116 colon carcinoma; 707 nM in test [1]; > 10 µM on Insulin Receptor Kinase; > 100 µM on Protein Kinase A; > 100 µM in test [2]. In test [3], this compound gave an IC50 of 626 nM.
As to `Nc1nc(Nc2ccc(S(N)(=O)=O)cc2)nn1C(=O)C1CCCC1` [Cpd 38, 4-[[5-amino-1-(cyclopentylcarbonyl)-1H-1,2,4-triazol-3-yl]amino]-benzenesulfonamide], the IC50 in test [4] is 6100 nM; in the test with HCT-116 colon carcinoma, 2270 nM; in test [1] it was 4560 nM; at Insulin Receptor Kinase, > 100 µM; on Protein Kinase A, > 100 µM; in test [2], > 100 µM. The compound also registered an IC50 in test [3] of 2750 nM.
Consider `Nc1nc(Nc2ccc(S(N)(=O)=O)cc2)nn1C(=O)C1CCCCC1` [Cpd 39, 4-[[5-amino-1-(cyclohexylcarbonyl)-1H-1,2,4-triazol-3-yl]amino]-benzenesulfonamide], for which the IC50 in test [4] was 4100 nM; in the test on HCT-116 colon carcinoma, 1410 nM; in test [1] it was 270 nM; at Insulin Receptor Kinase it was 19.4 µM; at Protein Kinase A it was > 100 µM; in test [2], > 100 µM. The same compound came in with an IC50 in test [3] of 625 nM.
For `CC(C)(C)c1ccc(C(=O)n2nc(Nc3ccc(S(N)(=O)=O)cc3)nc2N)s1` [Cpd 51, 4-[[5-amino-1-[[5-(1,1-dimethylethyl)-2-thienyl]carbonyl]-1H-1,2,4-triazol-3-yl]amino]-benzenesulfonamide], the IC50 in test [4] came to 223 nM; with A375 malignant melanoma, 333 nM; in test [1], 220 nM; at Insulin Receptor Kinase, 0.077 µM; on Protein Kinase A it was 0.911 µM; in test [2], 1.78 µM. The same compound came in with an IC50 in test [3] of 57 nM.
As for `CC(O)c1ccc(F)c(C(=O)n2nc(Nc3ccc(S(N)(=O)=O)cc3)nc2N)c1F` (stereo not drawn) [Cpd 58, 4-[[5-amino-1-[2,6-difluoro-3-(1-hydroxyethyl)benzoyl]-1H-1,2,4-triazol-3-yl]amino]-benzenesulfonamide], the half-maximal inhibitory concentration (IC50) in test [4] is 11200 nM; in the test with A375 malignant melanoma, 981 nM; in the test on HCT-116 colon carcinoma it was 1270 nM; in test [1], 186 nM; on Insulin Receptor Kinase, > 100 µM; at Protein Kinase A, > 100 µM. For the same compound, the IC50 in test [2] was > 100 µM; in test [3] it was 362 nM.
For the compound `Cc1ccc(F)c(C(=O)n2nc(Nc3ccc(S(N)(=O)=O)cc3)nc2N)c1Cl` [Cpd 69, 4-[[5-amino-1-(2-chloro-6-fluoro-3-methylbenzoyl)-1H-1,2,4-triazol-3-yl]amino]-benzenesulfonamide], the IC50 in test [4] is 16600 nM; in the test with A375 malignant melanoma, 441 nM; with HCT-116 colon carcinoma, 1720 nM; in test [1], 218 nM; at Insulin Receptor Kinase, 45.1 µM; at Protein Kinase A, 46.6 µM. The results for the IC50 in test [2] and in test [3] were > 100 µM and 8 nM, respectively.
On to `Nc1nc(Nc2ccc(S(N)(=O)=O)cc2)nn1C(=O)c1c(F)cccc1Cl` [Cpd 70, 4-[[5-amino-1-(2-chloro-6-fluorobenzoyl)-1H-1,2,4-triazol-3-yl]amino]-benzenesulfonamide], for which the IC50 is 35700 nM in test [4]; 1100 nM in the test with A375 malignant melanoma; 1580 nM with HCT-116 colon carcinoma; 196 nM in test [1]; > 100 µM at Insulin Receptor Kinase; 34.2 µM at Protein Kinase A. Besides, the IC50 in test [2] was > 100 µM; in test [3], 11 nM.

Usually IC50 stands for the concentration needed to halve the response being measured.

These data come from patent US6924302B2, “Substituted triazole diamine derivatives as kinase inhibitors” (Ortho McNeil Pharmaceutical, Inc., priority 2000, dated 2005).
